According to patent publication US20230323410A1, “BACTERIAL CELLS AND METHODS FOR PRODUCTION OF 2-FLUORO-CIS,CIS-MUCONATE” (priority 2020, published 2023):
“Also recorded” adds a separate entry of the source. Like-named read-outs stand apart in the source and are kept apart here.

Legend:
[1] = system: P. knackmussii; experiment: Shaken flask fermentation with 10 mM 2-FBz or 3-FBz; type: cell-based, Pseudomonas knackmussii
[2] = system: P. putida KT2440; details: for growth rate as share of the maximum rate on glucose: 20 mM
[3] = system: P. knackmussii; experiment: Microtiter plate cultivation: growth with metabolites of the bioconversion; details: for growth rate as share of the μmax observed on only glucose: 15 mM
[4] = system: Pmuc3 pSEVA228; type: cell-based, Pseudomonas putida
[5] = system: Pmuc10; experiment: Microtiter plate cultivation: growth with metabolites of the bioconversion; details: for Maximum growth rate μmax: Example 6 (improved method)
[6] = system: XylS/Pm; type: cell-based, P. putida KT2440; details: for GFP expression from Pm relative to the one brought about by 1.0 mM 3-mBz: 5.0 mM inducer
[7] = system: CatR/Pcat; type: cell-based, P. putida KT2440
[8] = system: BenR/Pben; type: cell-based, P. putida KT2440; details: for increase of induction compared to the uninduced system: 5 mM
[9] = Example 1, 30 mM glucose, 10 mM additive
[10] = Example 1, 30 mM glucose, 15 mM additive
[11] = Example 1, 30 mM glucose, 20 mM additive
[12] = Example 6 (improved method), 30 mM glucose, 10 mM additive
[13] = Example 6 (improved method), 30 mM glucose, 15 mM additive
[14] = Example 6 (improved method), 30 mM glucose, 20 mM additive
[15] = Example 1, 30 mM glucose, 0.5 mM additive
[16] = Example 1, 30 mM glucose, 1.0 mM additive
[17] = Example 1, 30 mM glucose, 2.0 mM additive
[18] = Example 6 (improved method), 30 mM glucose, 0.5 mM additive
[19] = Example 6 (improved method), 30 mM glucose, 2.0 mM additive
[20] = Example 6 (improved method), 30 mM glucose, 1.0 mM additive
[21] = Example 6 (improved method), 30 mM glucose, 5.0 mM additive
[22] = Example 1, 30 mM glucose, 5.0 mM additive
[23] = Example 1, 30 mM as sole carbon source
[24] = Example 6 (improved method), 30 mM as sole carbon source

## O=C(O)c1ccccc1F [Strain 2-FBz, 2-fluorobenzoic acid]
[1]; 10 mM 2-FBz, initial about 20 h, Example 1
  qs: 0.26 mmol gCDW^−1 h^−1
[1]; 10 mM 2-FBz, initial about 20 h, Example 6
  qs: 0.81 mmol gCDW^−1 h^−1
[2]; Example 1
  growth rate as share of the maximum rate on glucose: 80%
[2]; [9]
  Maximum growth rate μmax: 0.57 h⁻¹
[2]; [10]
  Maximum growth rate μmax: 0.53 h⁻¹
[2]; [11]
  Maximum growth rate μmax: 0.48 h⁻¹
[2]; [12]
  Maximum growth rate μmax: 0.56 h⁻¹
[2]; [13]
  Maximum growth rate μmax: 0.52 h⁻¹
[2]; [14]
  Maximum growth rate μmax: 0.46 h⁻¹
[2]; Example 6
  growth rate as share of the maximum rate on glucose: 53%
[3]; Example 1
  growth rate as share of the μmax observed on only glucose: 58%
[3]; [9]
  Maximum growth rate μmax: 0.25 h⁻¹
[3]; [10]
  Maximum growth rate μmax: 0.22 h⁻¹
[3]; [11]
  Maximum growth rate μmax: unable to grow at all
[3]; Example 1, 30 mM glucose, 20 mM additive, listed as K-2-F-benzoate
  Maximum growth rate μmax: no growth
[3]; [12]
  Maximum growth rate μmax: 0.25 h⁻¹
[3]; [13]
  Maximum growth rate μmax: 0.19 h⁻¹
[3]; [14]
  Maximum growth rate μmax: unable to grow at all
[3]; Example 6 (improved method), 30 mM glucose, 20 mM additive, listed as K-2-F-benzoate
  Maximum growth rate μmax: no growth
[3]; Example 6
  growth rate as share of the μmax observed on only glucose: 54%

## Oc1cccc(F)c1O [Strain 3-FC, 3-fluorocatechol]
[4]; [15]
  Maximum growth rate μmax: 0.61 h⁻¹
[4]; [16]
  Maximum growth rate μmax: 0.48 h⁻¹
[4]; [17]
  Maximum growth rate μmax: 0.22 h⁻¹
[4]; [18]
  Maximum growth rate μmax: 0.74 h⁻¹
[4]; [19]
  Maximum growth rate μmax: 0.22 h⁻¹
[2]; [15]
  Maximum growth rate μmax: 0.72 h⁻¹
[2]; [16]
  Maximum growth rate μmax: 0.65 h⁻¹
[2]; [17]
  Maximum growth rate μmax: 0.39 h⁻¹
[2]; [18]
  Maximum growth rate μmax: 0.71 h⁻¹
[2]; [20]
  Maximum growth rate μmax: 0.68 h⁻¹
[2]; [19]
  Maximum growth rate μmax: 0.36 h⁻¹
[2]; [21]
  Maximum growth rate μmax: no growth
[3]; [15]
  Maximum growth rate μmax: 0.28 h⁻¹
[3]; [16]
  Maximum growth rate μmax: 0.17 h⁻¹
[3]; [17]
  Maximum growth rate μmax: 0.11 h⁻¹
[3]; [18]
  Maximum growth rate μmax: 0.32 h⁻¹
[3]; [20]
  Maximum growth rate μmax: 0.31 h⁻¹
[3]; [19]
  Maximum growth rate μmax: 0.12 h⁻¹
[5]; 30 mM glucose, 2.0 mM additive
  Maximum growth rate μmax: no growth

## O=C(O)c1cccc(F)c1 [Strain 3-FBz, 3-fluorobenzoic acid]
[4]; [9]
  Maximum growth rate μmax: 0.33 h⁻¹
[4]; [10]
  Maximum growth rate μmax: 0.32 h⁻¹
[4]; [11]
  Maximum growth rate μmax: 0.30 h⁻¹
[4]; [12]
  Maximum growth rate μmax: 0.33 h⁻¹
[4]; [13]
  Maximum growth rate μmax: 0.32 h⁻¹
[4]; [14]
  Maximum growth rate μmax: 0.30 h⁻¹
[1]; 10 mM 3-FBz, Example 1
  qs: 0.090 mmol gCDW^−1 h^−1
[1]; 10 mM 3-FBz, Example 6
  qs: 1.01 mmol gCDW^−1 h^−1
[6]; 1.0 mM
  expression strength: close to the basal, uninduced expression
[6]
  GFP expression from Pm relative to the one brought about by 1.0 mM 3-mBz: 7%
[6]; compound as inducer
  GFP expression under Pm(ML1-17) control relative to the expression provided by Pm: 70%
[7]; 0.5 mM
  induction: most strongly and fully induced
[8]; 1.0 mM
  increase in GFP expression over basal expression: No further increase
[8]
  increase of induction compared to the uninduced system: 70%
[2]; 30 mM glucose, substantially reduced μmax
  maximum concentration in the presence of which the strain was able to grow: 10 mM
[2]; [22]
  Maximum growth rate μmax: 0.36 h⁻¹
[2]; [9]
  Maximum growth rate μmax: 0.13 h⁻¹
[2]; [10]
  Maximum growth rate μmax: no growth
[2]; [11]
  Maximum growth rate μmax: no growth
[2]; [21]
  Maximum growth rate μmax: 0.25 h⁻¹
[2]; [12]
  Maximum growth rate μmax: 0.13 h⁻¹
[2]; [13]
  Maximum growth rate μmax: no growth
[3]; [22]
  Maximum growth rate μmax: almost completely impaired
[3]; Example 1, 30 mM glucose, 5.0 mM additive, listed as K-3-F-benzoate
  Maximum growth rate μmax: 0.01 h⁻¹
[3]; [9]
  Maximum growth rate μmax: no growth
[3]; [10]
  Maximum growth rate μmax: no growth
[3]; [11]
  Maximum growth rate μmax: no growth
[3]; [21]
  Maximum growth rate μmax: almost completely impaired
[3]; Example 6 (improved method), 30 mM glucose, 5.0 mM additive, listed as K-3-F-benzoate
  Maximum growth rate μmax: 0.04 h⁻¹
[3]; [12]
  Maximum growth rate μmax: no growth
[3]; [13]
  Maximum growth rate μmax: no growth
[3]; [14]
  Maximum growth rate μmax: no growth
[5]; 30 mM glucose, FIG. 13
  concentration up to which no toxic effects were observed: ≤ 20000 µM
[5]; 30 mM glucose, FIG. 13, strongly reduced rate and maximum biomass concentration
  highest concentration at which the strain was able to produce biomass: ≤ 50 mM
[5]; 30 mM glucose, 10 mM additive
  Maximum growth rate μmax: 0.45 h⁻¹
[5]; 30 mM glucose, 20 mM additive
  Maximum growth rate μmax: 0.47 h⁻¹
[5]; 30 mM glucose, 30 mM additive
  Maximum growth rate μmax: 0.27 h⁻¹
[5]; 30 mM glucose, 40 mM additive
  Maximum growth rate μmax: 0.24 h⁻¹
[5]; 30 mM glucose, 50 mM additive
  Maximum growth rate μmax: 0.20 h⁻¹

## O=C([O-])c1ccccc1.[K+] [K-benzoate, potassium benzoate]
[4]; Example 1, 30 mM K-benzoate as carbon source, 0.5 mM 3-mBz
  Maximum growth rate μmax: 0.16 h⁻¹
[4]; Example 6 (improved method), 30 mM K-benzoate as carbon source, 0.5 mM 3-mBz
  Maximum growth rate μmax: 0.16 h⁻¹
[6]
  GFP expression from Pm relative to the one brought about by 1.0 mM 3-mBz: 20%
[7]; 5 mM
  GFP fluorescence as compared to the induction by 3-FBz: 35%
[8]; 2.0 mM
  increase in GFP expression over basal expression: No further increase
[8]
  increase of induction compared to the uninduced system: 70%
[2]; [23]
  Maximum growth rate μmax: 0.37 h⁻¹
[2]; [24]
  Maximum growth rate μmax: 0.62 h⁻¹
[3]; [23]
  Maximum growth rate μmax: no growth
[3]; [24]
  Maximum growth rate μmax: no growth
[5]; 30 mM as sole carbon source
  Maximum growth rate μmax: 0.53 h⁻¹

## Oc1ccccc1O [catechol, pyrocatechol]
[4]; [17]
  Maximum growth rate μmax: 0.86 h⁻¹
[4]; [18]
  Maximum growth rate μmax: 0.62 h⁻¹
[4]; [20]
  Maximum growth rate μmax: 0.74 h⁻¹
[4]; [19]
  Maximum growth rate μmax: 0.81 h⁻¹
[2]; [15]
  Maximum growth rate μmax: 0.72 h⁻¹
[2]; [16]
  Maximum growth rate μmax: 0.77 h⁻¹
[2]; [17]
  Maximum growth rate μmax: 0.78 h⁻¹
[2]; Example 1, up to 2 mM
  increase of μmax with increasing concentration: up to 30%
[2]; [18]
  Maximum growth rate μmax: 0.69 h⁻¹
[2]; [20]
  Maximum growth rate μmax: 0.71 h⁻¹
[2]; [19]
  Maximum growth rate μmax: 0.68 h⁻¹
[3]; [15]
  Maximum growth rate μmax: 0.36 h⁻¹
[3]; [16]
  Maximum growth rate μmax: 0.33 h⁻¹
[3]; [17]
  Maximum growth rate μmax: 0.31 h⁻¹
[3]; [18]
  Maximum growth rate μmax: 0.36 h⁻¹
[3]; [20]
  Maximum growth rate μmax: 0.33 h⁻¹
[3]; [19]
  Maximum growth rate μmax: 0.29 h⁻¹
[3]; up to 2 mM
  toxic effect: slightly toxic effect; also recorded: Only a little toxic effect
